Marks after values point to notes of the source that are not given here.
System: Fertilized Cobb 500 broiler eggs
Experiment: In ovo NR dose, time course of body and pectoralis major morphometrics at E15, E19, hatch (second Example VI)
Assay type: in vivo, chicken
Description: Fertilized Cobb 500 broiler eggs (N=247; Cobb Vantress, Siloam Springs, Ark.) were transported to Kansas State University Muscle Biology Laboratory (Manhattan, Kans.), egg weights were recorded, and within each 4 egg strata eggs were randomly assigned to an NR treatment (0 mM, 250 mM, 500 mM, or 1 M NR). After treatment allocation, eggs were put onto trays and placed in a Sportsman 1502 incubator (GQF Manufacturing Company Inc., Savannah, Ga.) set to operate at 37° C. and 40±4% relative humidity. Trays were rotated hourly to reposition eggs and egg weights were recorded daily to determine percentage weight loss with a standard daily weight loss ranging from 0.65% to 0.75%.
At d 10 of incubation, the methods of Gonzalez and Jackson (2020) were followed for treatment administration. Eggs were briefly removed from the incubator and prior to injection, the injection site was cleaned with 70% ethanol. […] of 0.9% sterile saline was injected into yolk sac of each egg with a 2.54-cm, 20-guage injection needle inserted approximately 1-cm into injection site. The injection site was covered with a 1-cm^2 portion of medical tape (Nexcare; 3M, Maplewood, Minn.) and placed back into the incubator under the conditions described above. At d 18 of incubation, egg were removed from their trays, placed in hatching boxes, and the humidity of the incubator was increased to 60±2%.
At three time points, E (i.e., embryonic day 15, day 15 after the beginning of incubation), E19, and 24 hours post-hatching, embryos and chicks were euthanized by exposure to CO2 and decapitation. Crown to rump length (CR), head width and head length were measured by calipers (Traceable Digital Calipers; Fisher Scientific, Pittsburg, Pa.). Head and chest circumference were collected by curling a string around the target area and measuring the length of the curled string by a ruler. Chicks chest were sprayed with 70% ethanol, were skinned to expose the PMM, and chest width and length were measured by calipers. Both sides of the PMM were removed and the left side was weighed, followed by length, width, and thickness measurement collection. Following measurement collection, the left PMM was submerged in optimal cutting temperature tissue freezing medium compound, slowly frozen at −20° C. for 1 h, and stored at −80° C. until cryosectioning. The right side of PMM was stored in a 1.5 ml microcentrifuge tube and stored at −80° C. until NAD+ analysis. At last, the heart and liver of each chick were removed, weighed, and discarded.

[1] = 250 mM NR into yolk sac d 10, E15 embryos
[2] = 250 mM NR into yolk sac d 10, E19 embryos
[3] = 250 mM NR into yolk sac d 10, hatched chicks
[4] = 500 mM NR into yolk sac d 10, E15 embryos
[5] = 500 mM NR into yolk sac d 10, E19 embryos
[6] = 500 mM NR into yolk sac d 10, hatched chicks
[7] = 1,000 mM NR into yolk sac d 10, E15 embryos
[8] = 1,000 mM NR into yolk sac d 10, E19 embryos
[9] = 1,000 mM NR into yolk sac d 10, hatched chicks
[10] = E19 embryos, 250 to 1,000 mM NR

For `NC(=O)c1ccc[n+]([C@@H]2O[C@H](CO)[C@@H](O)[C@H]2O)c1` [Nicotinamide riboside, nicotinamide riboside], which Body weight [1] is on record?
Its Body weight is 14.5 g.

And the Crown-rump length [1]?
Its Crown-rump length is 61.4 mm.

And the Head length [1]?
The Head length was 17.6 mm.

What about the Head width [1] of the same compound?
The Head width was 13.7 mm.

What about the Heart weight [1] of the same compound?
The Heart weight was 0.14 g.

And the Liver weight [1]?
The Liver weight was 0.27 g.

What about the Pectoralis major depth [1] of the same compound?
The Pectoralis major depth was 7.2 mm.

What about the Pectoralis major length [1] of the same compound?
The Pectoralis major length was 18.3 mm.

What about the Pectoralis major weight [1] of the same compound?
Its Pectoralis major weight is 0.81 g.

What about the Pectoralis major width [1] of the same compound?
Its Pectoralis major width is 14.7 mm.

What about the Body weight [2] of the same compound?
The Body weight was 37.7 g.

And the Chest circumference [2]?
The Chest circumference was 59.5 mm.

What about the Chest length [2] of the same compound?
Its Chest length is 18.6 mm.

What about the Chest width [2] of the same compound?
The Chest width was 15.5 mm.

And the Crown-rump length [2]?
The Crown-rump length was 84.3 mm.

What about the Head circumference [2] of the same compound?
Its Head circumference is 53.2^a,c mm.

And the Head length [2]?
The Head length was 17.7 mm.

And the Head width [2]?
The Head width was 15.4 mm.

And the Heart weight [2]?
Its Heart weight is 0.22 g.

What about the Liver weight [2] of the same compound?
The Liver weight was 0.64 g.

What about the Pectoralis major depth [2] of the same compound?
Its Pectoralis major depth is 2.9 mm.

What about the Pectoralis major length [2] of the same compound?
The Pectoralis major length was 17.2^b mm.

And the Pectoralis major weight [2]?
The Pectoralis major weight was 0.17^b g.

What about the Pectoralis major width [2] of the same compound?
The Pectoralis major width was 5.5 mm.

What about the Body weight [3] of the same compound?
Its Body weight is 46.9 g.

What about the Chest circumference [3] of the same compound?
Its Chest circumference is 61.2 mm.

What about the Chest length [3] of the same compound?
Its Chest length is 21.9 mm.

What about the Chest width [3] of the same compound?
Its Chest width is 17.1^b mm.

What about the Crown-rump length [3] of the same compound?
Its Crown-rump length is 95.4 mm.

What about the Head circumference [3] of the same compound?
The Head circumference was 55.7 mm.

What about the Head length [3] of the same compound?
Its Head length is 18.7^b mm.

What about the Head width [3] of the same compound?
Its Head width is 15.5 mm.

What about the Heart weight [3] of the same compound?
The Heart weight was 0.31 g.

And the Liver weight [3]?
The Liver weight was 0.84 g.

And the Pectoralis major depth [3]?
Its Pectoralis major depth is 3.1^a,b mm.

What about the Pectoralis major length [3] of the same compound?
The Pectoralis major length was 19.9^b mm.

What about the Pectoralis major weight [3] of the same compound?
Its Pectoralis major weight is 0.23^b g.

And the Pectoralis major width [3]?
The Pectoralis major width was 5.5^b mm.

And the Body weight [4]?
The Body weight was 14.2 g.

And the Crown-rump length [4]?
The Crown-rump length was 61.1 mm.

And the Head length [4]?
Its Head length is 17.8 mm.

What about the Head width [4] of the same compound?
The Head width was 13.7 mm.

What about the Heart weight [4] of the same compound?
The Heart weight was 0.13 g.

What about the Liver weight [4] of the same compound?
The Liver weight was 0.25 g.

What about the Pectoralis major depth [4] of the same compound?
Its Pectoralis major depth is 7.1 mm.

What about the Pectoralis major length [4] of the same compound?
Its Pectoralis major length is 17.8 mm.

What about the Pectoralis major weight [4] of the same compound?
Its Pectoralis major weight is 0.82 g.

And the Pectoralis major width [4]?
The Pectoralis major width was 15.2 mm.

And the Body weight [5]?
Its Body weight is 37.9 g.

What about the Chest circumference [5] of the same compound?
The Chest circumference was 60.1 mm.

What about the Chest length [5] of the same compound?
Its Chest length is 18.5 mm.

What about the Chest width [5] of the same compound?
Its Chest width is 16.3 mm.

And the Crown-rump length [5]?
The Crown-rump length was 85.9 mm.

What about the Head circumference [5] of the same compound?
The Head circumference was 54.8^b,c mm.

And the Head length [5]?
Its Head length is 17.4 mm.

What about the Head width [5] of the same compound?
The Head width was 15.3 mm.

What about the Heart weight [5] of the same compound?
The Heart weight was 0.22 g.

And the Liver weight [5]?
Its Liver weight is 0.64 g.

And the Pectoralis major depth [5]?
Its Pectoralis major depth is 2.7 mm.

And the Pectoralis major length [5]?
The Pectoralis major length was 17.7^b mm.

And the Pectoralis major weight [5]?
Its Pectoralis major weight is 0.18^b g.

What about the Pectoralis major width [5] of the same compound?
The Pectoralis major width was 5.7 mm.

What about the Body weight [6] of the same compound?
The Body weight was 46.1 g.

And the Chest circumference [6]?
The Chest circumference was 62.5 mm.

What about the Chest length [6] of the same compound?
The Chest length was 21.2 mm.

And the Chest width [6]?
The Chest width was 16.6^a,b mm.

And the Crown-rump length [6]?
The Crown-rump length was 95.0 mm.

And the Head circumference [6]?
The Head circumference was 55.6 mm.

What about the Head length [6] of the same compound?
The Head length was 18.2^a,b mm.

What about the Head width [6] of the same compound?
Its Head width is 15.7 mm.

And the Heart weight [6]?
Its Heart weight is 0.31 g.

What about the Liver weight [6] of the same compound?
Its Liver weight is 0.90 g.

And the Pectoralis major depth [6]?
Its Pectoralis major depth is 3.3^b mm.

What about the Pectoralis major length [6] of the same compound?
Its Pectoralis major length is 20.3^b mm.

What about the Pectoralis major weight [6] of the same compound?
Its Pectoralis major weight is 0.23^b g.

What about the Pectoralis major width [6] of the same compound?
The Pectoralis major width was 5.6^b mm.

What about the Body weight [7] of the same compound?
The Body weight was 13.9 g.

And the Crown-rump length [7]?
Its Crown-rump length is 61.0 mm.

And the Head length [7]?
The Head length was 17.4 mm.

What about the Head width [7] of the same compound?
Its Head width is 14.0 mm.

And the Heart weight [7]?
Its Heart weight is 0.14 g.

What about the Liver weight [7] of the same compound?
Its Liver weight is 0.28 g.

And the Pectoralis major depth [7]?
The Pectoralis major depth was 6.6 mm.

What about the Pectoralis major length [7] of the same compound?
Its Pectoralis major length is 18.5 mm.

What about the Pectoralis major weight [7] of the same compound?
The Pectoralis major weight was 0.84 g.

And the Pectoralis major width [7]?
The Pectoralis major width was 14.9 mm.

And the Body weight [8]?
Its Body weight is 38.1 g.

And the Chest circumference [8]?
The Chest circumference was 61.5 mm.

And the Chest length [8]?
The Chest length was 18.3 mm.

And the Chest width [8]?
The Chest width was 15.4 mm.

And the Crown-rump length [8]?
The Crown-rump length was 86.3 mm.

What about the Head circumference [8] of the same compound?
Its Head circumference is 55.0^b mm.

What about the Head length [8] of the same compound?
Its Head length is 17.6 mm.

What about the Head width [8] of the same compound?
The Head width was 15.4 mm.

And the Heart weight [8]?
The Heart weight was 0.23 g.

And the Liver weight [8]?
Its Liver weight is 0.63 g.

What about the Pectoralis major depth [8] of the same compound?
Its Pectoralis major depth is 2.9 mm.

And the Pectoralis major length [8]?
Its Pectoralis major length is 17.6^b mm.

And the Pectoralis major weight [8]?
The Pectoralis major weight was 0.17^b g.

And the Pectoralis major width [8]?
The Pectoralis major width was 5.6 mm.

What about the Body weight [9] of the same compound?
Its Body weight is 46.6 g.

And the Chest circumference [9]?
Its Chest circumference is 61.4 mm.

What about the Chest length [9] of the same compound?
Its Chest length is 21.1 mm.

And the Chest width [9]?
Its Chest width is 16.1^a mm.

And the Crown-rump length [9]?
The Crown-rump length was 93.0 mm.

What about the Head circumference [9] of the same compound?
The Head circumference was 53.9 mm.

What about the Head length [9] of the same compound?
Its Head length is 17.8^a mm.

And the Head width [9]?
The Head width was 15.5 mm.

What about the Heart weight [9] of the same compound?
The Heart weight was 0.32 g.

What about the Liver weight [9] of the same compound?
Its Liver weight is 0.96 g.

And the Pectoralis major depth [9]?
The Pectoralis major depth was 3.0^a mm.

And the Pectoralis major length [9]?
The Pectoralis major length was 19.1^a,b mm.

And the Pectoralis major weight [9]?
The Pectoralis major weight was 0.22^b g.

What about the Pectoralis major width [9] of the same compound?
Its Pectoralis major width is 5.4^b mm.

What about the “Increase of PMM length (minimum over NR doses)” value [10] of the same compound?
Its value is ≥ 13%.

And the “Increase of PMM weight (minimum over NR doses)” value [10]?
The value was ≥ 21%.

And the “Increase in PMM depth” value (at hatch)?
The value was 18%.

What about the “Increase in PMM length” value (at hatch) of the same compound?
The value was 13%.

What about the “Increase in PMM width” value (at hatch) of the same compound?
Its value is 17%.

What about the PMM weight advantage (at hatch) of the same compound?
Its PMM weight advantage is 35%.
